Consider 2 compounds from patent US20260165973A1 (MERCK SHARP & DOHME LLC, priority 2023, published 2026).

Data set [1] in a line: Solubility / solubilization assessment of doravirine and islatravir. It is filed as physicochemical. To be noted: islatravir: in water and dissolution media. From the text:
Details are provided in Example 5.
The manufacturing process includes standard unit operations and equipment for tablet production.

For data set [2] the following is noted: open container at 5° C./ambient RH, 30° C./65% RH, 40° C./75% RH, and 60° C./ambient RH; cited from earlier work.

Structures are written as SMILES. Bounds are passed on as bounds.

Take `C#C[C@@]1(CO)O[C@H](n2cnc3c(N)nc(F)nc32)C[C@H]1O` [islatravir, (2S,3R,5S)-5-(6-amino-2-fluoro-9H-purin-9-yl)-2-ethynyl-2-(hydroxymethyl)tetrahydrofuran-3-ol]: the “Solubility” value in data set [1] is recorded as “high solubility”.
As for `Cn1c(Cn2ccc(C(F)(F)F)c(Oc3cc(Cl)cc(C#N)c3)c2=O)n[nH]c1=O` [Neat amorphous doravirine, 3-chloro-5-({1-[(4-methyl-5-oxo-4,5-dihydro-1H-1,2,4-triazol-3-yl)methyl]-2-oxo-4-(trifluoromethyl)-1,2-dihydropyridin-3-yl}oxy)benzonitrile], the “Time to crystallization on storage” value in data set [2] was no more than 2 weeks.
